Experimental data from the supplement of paper PMC10307832.

Legend:
Assay in all cases: relative viability (nuclei count vs DMSO), 5 days (fraction); higher = more cells survive
ABC-1 = tested on: ABC-1
Summary of the method: (§1)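 Cells from lung cancer lines were seeded into 1536-well plates and, one day later, dosed by pin tool. Treatments were either a single drug or a fixed dose of an anchor drug with five library-drug doses (not always all listed) in √10 steps. After 5 days, nuclei were stained in a one-step fixation (final 0.05% Triton X-100, 1% formaldehyde, 1 ug/ml Hoechst) and counted on 4× images, and relative viability is the treated-to-vehicle nuclei ratio, as the median of duplicate plates.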

CAL-12T = tested on: CAL-12T
Summary of the method: as §1

COR-L 105 = tested on: COR-L 105
Summary of the method: as §1

EMC-BAC-2 = tested on: EMC-BAC-2
Summary of the method: as §1

EPLC-272H = tested on: EPLC-272H
Summary of the method: as §1

HCC-15 = tested on: HCC-15
Summary of the method: as §1

HCC-78 = tested on: HCC-78
Summary of the method: as §1

HOP-62 = tested on: HOP-62
Summary of the method: as §1

LXF-289 = tested on: LXF-289
Summary of the method: as §1

NCI-H1666 = tested on: NCI-H1666
Summary of the method: as §1

NCI-H1755 = tested on: NCI-H1755
Summary of the method: as §1

NCI-H1915 = tested on: NCI-H1915
Summary of the method: as §1

NCI-H1975 = tested on: NCI-H1975
Summary of the method: as §1

NCI-H1993 = tested on: NCI-H1993
Summary of the method: as §1

NCI-H2023 = tested on: NCI-H2023
Summary of the method: as §1

NCI-H2085 = tested on: NCI-H2085
Summary of the method: as §1

NCI-H2126 = tested on: NCI-H2126
Summary of the method: as §1

NCI-H3122 = tested on: NCI-H3122
Summary of the method: as §1

NCI-H322M = tested on: NCI-H322M
Summary of the method: as §1

NCI-H358 = tested on: NCI-H358
Summary of the method: as §1

NCI-H441 = tested on: NCI-H441
Summary of the method: as §1

UMC-11 = tested on: UMC-11
Summary of the method: as §1

`Oc1nc(-c2ccc(C(F)(F)F)cc2)nc2c1CSCC2` [XAV939] + Cc1nc(NC(=O)N2CCC[C@H]2C(N)=O)sc1-c1ccnc(C(C)(C)C(F)(F)F)c1 [Alpelisib] (partner 2 µM) gave a relative viability (ABC-1; first compound 0.08 µM) of 1.14, a relative viability (ABC-1; first compound 0.253 µM) of 0.811 and a relative viability (ABC-1; first compound 0.8 µM) of 0.965. The relative viability (ABC-1; first compound 2.53 µM) was 0.428, the relative viability (CAL-12T; first compound 0.08 µM) was 1.42 and the relative viability (CAL-12T; first compound 0.253 µM) was 0.932. For the same compound, the relative viability (CAL-12T; first compound 0.8 µM) was 1.2, the relative viability (CAL-12T; first compound 2.53 µM) was 0.73 and the relative viability (COR-L 105; first compound 0.08 µM) was 1.14. It also gave a relative viability (COR-L 105; first compound 0.253 µM) of 0.867, a relative viability (COR-L 105; first compound 0.8 µM) of 0.952 and a relative viability (COR-L 105; first compound 2.53 µM) of 0.576. For the same compound, the relative viability (EMC-BAC-2; first compound 0.08 µM) was 0.859, the relative viability (EMC-BAC-2; first compound 0.253 µM) was 0.69 and the relative viability (EMC-BAC-2; first compound 0.8 µM) was 0.621. For the same compound, the relative viability (EMC-BAC-2; first compound 2.53 µM) was 0.367, the relative viability (EPLC-272H; first compound 0.08 µM) was 0.958 and the relative viability (EPLC-272H; first compound 0.253 µM) was 0.863. For the same compound, the relative viability (EPLC-272H; first compound 0.8 µM) was 0.908, the relative viability (EPLC-272H; first compound 2.53 µM) was 0.889 and the relative viability (HCC-15; first compound 0.08 µM) was 1. For the same compound, the relative viability (HCC-15; first compound 0.253 µM) was 0.939, the relative viability (HCC-15; first compound 0.8 µM) was 0.925 and the relative viability (HCC-15; first compound 2.53 µM) was 0.946. For the same compound, the relative viability (HCC-78; first compound 0.08 µM) was 0.35, the relative viability (HCC-78; first compound 0.253 µM) was 0.248 and the relative viability (HCC-78; first compound 0.8 µM) was 0.375. The relative viability (HCC-78; first compound 2.53 µM) was 0.273, the relative viability (HOP-62; first compound 0.08 µM) was 1.02 and the relative viability (HOP-62; first compound 0.253 µM) was 0.54. The relative viability (HOP-62; first compound 0.8 µM) was 0.673, the relative viability (HOP-62; first compound 2.53 µM) was 0.69 and the relative viability (LXF-289; first compound 0.08 µM) was 1.04. For the same compound, the relative viability (LXF-289; first compound 0.253 µM) was 0.996, the relative viability (LXF-289; first compound 0.8 µM) was 1.01 and the relative viability (LXF-289; first compound 2.53 µM) was 1.01. For the same compound, the relative viability (NCI-H1666; first compound 0.08 µM) was 0.87, the relative viability (NCI-H1666; first compound 0.253 µM) was 0.63 and the relative viability (NCI-H1666; first compound 0.8 µM) was 0.721. The relative viability (NCI-H1666; first compound 2.53 µM) was 0.591, the relative viability (NCI-H1755; first compound 0.08 µM) was 0.895 and the relative viability (NCI-H1755; first compound 0.253 µM) was 0.808. For the same compound, the relative viability (NCI-H1755; first compound 0.8 µM) was 0.888, the relative viability (NCI-H1755; first compound 2.53 µM) was 0.735 and the relative viability (NCI-H1915; first compound 0.08 µM) was 1.08. For the same compound, the relative viability (NCI-H1915; first compound 0.253 µM) was 1.07, the relative viability (NCI-H1915; first compound 0.8 µM) was 1.03 and the relative viability (NCI-H1915; first compound 2.53 µM) was 1.08. It also gave a relative viability (NCI-H1975; first compound 0.08 µM) of 0.619, a relative viability (NCI-H1975; first compound 0.253 µM) of 0.573 and a relative viability (NCI-H1975; first compound 0.8 µM) of 0.566. For the same compound, the relative viability (NCI-H1975; first compound 2.53 µM) was 0.445, the relative viability (NCI-H1993; first compound 0.8 µM) was 0.635 and the relative viability (NCI-H1993; first compound 2.53 µM) was 0.633. It also gave a relative viability (NCI-H2023; first compound 0.08 µM) of 0.572, a relative viability (NCI-H2023; first compound 0.253 µM) of 0.524 and a relative viability (NCI-H2023; first compound 0.8 µM) of 0.525. It also gave a relative viability (NCI-H2023; first compound 2.53 µM) of 0.412, a relative viability (NCI-H2085; first compound 0.08 µM) of 0.993 and a relative viability (NCI-H2085; first compound 0.253 µM) of 0.898. It also gave a relative viability (NCI-H2085; first compound 0.8 µM) of 0.814, a relative viability (NCI-H2085; first compound 2.53 µM) of 0.737 and a relative viability (NCI-H2126; first compound 0.08 µM) of 0.748. It also gave a relative viability (NCI-H2126; first compound 0.253 µM) of 0.661, a relative viability (NCI-H2126; first compound 0.8 µM) of 0.664 and a relative viability (NCI-H2126; first compound 2.53 µM) of 0.563. For the same compound, the relative viability (NCI-H3122; first compound 0.08 µM) was 0.812, the relative viability (NCI-H3122; first compound 0.253 µM) was 0.575 and the relative viability (NCI-H3122; first compound 0.8 µM) was 0.757. It also gave a relative viability (NCI-H3122; first compound 2.53 µM) of 0.358, a relative viability (NCI-H322M; first compound 0.08 µM) of 0.844 and a relative viability (NCI-H322M; first compound 0.253 µM) of 0.656. It also gave a relative viability (NCI-H322M; first compound 0.8 µM) of 0.741, a relative viability (NCI-H322M; first compound 2.53 µM) of 0.718 and a relative viability (NCI-H358; first compound 0.08 µM) of 0.815. It also gave a relative viability (NCI-H358; first compound 0.253 µM) of 0.671, a relative viability (NCI-H358; first compound 0.8 µM) of 0.915 and a relative viability (NCI-H358; first compound 2.53 µM) of 0.591. For the same compound, the relative viability (NCI-H441; first compound 0.08 µM) was 0.687, the relative viability (NCI-H441; first compound 0.253 µM) was 0.486 and the relative viability (NCI-H441; first compound 0.8 µM) was 0.742. It also gave a relative viability (NCI-H441; first compound 2.53 µM) of 0.657, a relative viability (UMC-11; first compound 0.08 µM) of 1.2 and a relative viability (UMC-11; first compound 0.8 µM) of 0.971. For the same compound, the relative viability (UMC-11; first compound 2.53 µM) was 0.64.
